# Assay results from ChEMBL document CHEMBL3352429, “A review on recent developments of indole-containing antiviral agents” (Eur J Med Chem, 2015).
# Structures can show the parent of a compound that is named as a salt.
# Columns and labels:
# [1] = system: Human alphaherpesvirus 2; test: Antiviral activity against Herpes simplex virus type 2; type: functional, organism-based
# [2] = system: Human alphaherpesvirus 1; test: Antiviral activity against Herpes simplex virus type 1; type: functional, organism-based
# [3] = system: Human immunodeficiency virus 1; test: Antiviral activity against HIV1; type: functional, organism-based
# [4] = Inhibition of HIV-1 integrase LEDGF/p75 (unknown origin) interaction; design: species or system Human immunodeficiency virus 1
# [5] = Cytotoxicity against human TZM-bl cells; type: cell-based
# [6] = system: Human immunodeficiency virus 1; test: Antiviral activity against HIV-1 3B infected in human TZM-bl cells; type: functional, organism-based; details: Human immunodeficiency virus 1, 3B
# [7] = Selectivity index, ratio of CC50 for human TZM-bl cells to EC50 for HIV-1 3B; type: toxicity, cell-based; details: read-out: Ratio CC50/EC50
# [8] = Therapeutic index, ratio of CC50 for human C8166 cells to EC50 for HIV-1 3B; type: cell-based; details: read-out: Ratio CC50/EC50
# [9] = system: Human immunodeficiency virus 1; test: Antiviral activity against wild type HIV1 3B infected in human C8166 cells assessed as cytopathic effect by counting the number of syncytia; type: functional, organism-based; details: Human immunodeficiency virus 1, 3B
# [10] = Cytotoxicity against human peripheral blood leukocyte cells at 100 uM; type: cell-based
# [11] = system: Human immunodeficiency virus 1; test: Antiviral activity against HIV1 infected in human peripheral blood leukocyte cells assessed as inhibition of replication; type: functional, organism-based
# [12] = system: Human immunodeficiency virus 1; test: Antiviral activity against wild type HIV1 3B infected in human MT-2 cells assessed as protection of infected cells by MTT colorimetric method; type: functional, organism-based; details: Human immunodeficiency virus 1, 3B, MT2
# [13] = biological target: T1, Human immunodeficiency virus type 1 integrase (Human immunodeficiency virus 1, UniProt Q7ZJM1); test: Inhibition of HIV-1 integrase strand transfer activity
# [14] = biological target: T1, Human immunodeficiency virus type 1 integrase; test: Inhibition of HIV-1 integrase
# [15] = read-out: ID50 (the source's name)
# T1 sequence (Q7ZJM1 whole entry): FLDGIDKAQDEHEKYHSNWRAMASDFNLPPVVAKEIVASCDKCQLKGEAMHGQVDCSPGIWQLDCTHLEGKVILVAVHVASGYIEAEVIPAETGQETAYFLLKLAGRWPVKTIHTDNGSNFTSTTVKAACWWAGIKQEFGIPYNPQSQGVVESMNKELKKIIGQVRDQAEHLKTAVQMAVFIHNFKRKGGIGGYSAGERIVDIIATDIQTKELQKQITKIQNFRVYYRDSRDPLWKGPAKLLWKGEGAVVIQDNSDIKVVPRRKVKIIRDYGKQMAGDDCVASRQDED
smiles,measurement,setting,value
O=C(/C=C/c1c[nH]c2ccccc12)N/C=C\c1c[nH]c2ccccc12 [CHONDRIAMIDE C],IC50,[1]; read-out: IC50,1 µM
CC(C)CC(=O)[C@@H](O)Cc1c[nH]c2ccccc12,IC50,[2]; [15],1.5 µg/mL
same,IC50,[1]; [15],1.5 µg/mL
COc1ccc2c(c1)N=CN1CCc3c([nH]c4ccccc34)C3=NCC[C@@]321,EC50,[3],0.02 µM
COc1cccc2c1c(C(=O)/C=C(\O)C(=O)O)cn2Cc1ccc(F)cc1,IC50,[4],36 µM
CCOC(=O)C(O)(c1c[nH]c2ccc([N+](=O)[O-])cc12)C(F)(F)F (stereo not given),CC50,[5],211 µM
same,EC50,[6],0.019 µM
same,selectivity ratio,[7],11.1
O=[N+]([O-])c1ccccc1-n1ccc2ccccc21,selectivity ratio,[8],24.6
same,EC50,[9],7.88 µg/mL
CCNc1cccnc1N1CCN(C(=O)c2cc3cc(OC)ccc3[nH]2)CC1 [ATEVIRDINE MESYLATE],Activity,[10],50%
same,IC50,[11],0.001 µM
O=[N+]([O-])c1ccc2c(ccn2-c2ccccc2[N+](=O)[O-])c1,selectivity ratio,[8],24.6
same,EC50,[9],7.88 µg/mL
O=c1ccn(CCOc2ccccc2Oc2cccc3[nH]ccc23)c(=O)[nH]1,EC50,[12],0.085 µM
C[C@H]1c2nc(N)[nH]c2[C@]2(O)C[C@H]1c1c(-c3cnc(-c4c[nH]c5cc(Br)ccc45)c(=O)[nH]3)c[nH]c1C2=O,EC50,[2],95.8 µM
same,EC50,[3],0.91 µM
Cc1cn(-c2ccc([N+](=O)[O-])cc2)c2ccccc12,selectivity ratio,[8],24.6
same,EC50,[9],7.88 µg/mL
O=C(/C=C/c1c[nH]c2ccccc12)N/C=C/c1c[nH]c2ccccc12 [CHONDRIAMIDE A],IC50,[1]; read-out: IC50,1 µM
COc1cccc2c1c(C(=O)/C=C(\O)C(=O)O)cn2Cc1cc(C)cc(C)c1,IC50,[13],5.49 µM
same,EC50,[3],4.63 µM
COc1ccc2c3c([nH]c2c1)C1=NCC[C@]12c1ccccc1N=CN2CC3,EC50,[3],0.95 µM
Cc1cc(C)cc(Cn2cc(C(=O)/C=C(\O)C(=O)O)c3c(O)cccc32)c1,IC50,[14],3.5 µM
O=C(/C=C/c1c[nH]c2c(O)cccc12)N/C=C/c1c[nH]c2ccccc12,IC50,[1]; read-out: IC50,1 µM
